Measurements published in patent publication US20260207572A1, “METHODS AND COMPOSITIONS FOR TREATMENT OF SUBJECTS WITH HEPATIC IMPAIRMENTS” (ELEVAR THERAPEUTICS, INC., priority 2022, published 2026).
Where two headings read alike, the source gives them in different places.

Assay: Phase 1 single-dose plasma pharmacokinetics in subjects with normal hepatic function, mild or moderate hepatic impairment
Assay type: in vivo, human
Conditions: for half-life / Tmax / concentration at 0.5 h / concentration at 1 h / concentration at 2 h / concentration at 3 h / concentration at 4 h / concentration at 6 h / concentration at 8 h / concentration at 12 h / concentration at 16 h / concentration at 24 h / concentration at 36 h / concentration at 48 h / AUC(0-t) / AUC(0-inf) / Cmax / Vd/F: human, plasma, po, 200 mg, 200 mg single oral dose
Excerpt: Patients: 27 subjects were enrolled within the following groups based on their Child-Pugh (CP) classification score: • Group 1: Matched-control healthy subjects with normal hepatic function; • Group 2: Subjects with mild hepatic impairment (CP Class A, score of 5 or 6); • Group 3: Subjects with moderate hepatic impairment (CP Class B, score of 7 to 9).
A parallel design strategy was adopted for the hepatic impairment groups. Each matched-control healthy subject (Group 1) was enrolled following the enrollment of a mild and/or moderate hepatic impairment subject and was demographically matched by age (±10 years), BMI (±20%), and sex to the enrolled hepatic impairment subject(s). Subjects with normal hepatic function were not matched to more than 1 hepatically-impaired subject within an impairment group; however, subjects with normal hepatic function could be matched to 1 subject from more than 1 hepatic impairment group.
Other noncompartmental parameters could be reported.
The paired t-test was performed separately for each hepatic impairment group and the corresponding matched healthy controls. Estimates of geometric mean ratios in primary PK parameters between each level of impaired hepatic function versus the matched healthy controls were presented along with the corresponding 90% confidence intervals (CIs) for the geometric mean ratios. The p-value assessing the difference between each impairment group and the healthy control group was presented.
The PK analysis was conducted by Covance Early Clinical Biometrics using WinNonlin Version 8.1.

[1] = Moderate Hepatic Impairment, read-out: Plasma concentration, Arithmetic Mean
[2] = Moderate Hepatic Impairment, read-out: Plasma concentration, Geometric Mean
[3] = Moderate Hepatic Impairment, read-out: Plasma concentration, Median
[4] = Normal Hepatic Function, read-out: Plasma concentration, Arithmetic Mean
[5] = Normal Hepatic Function, read-out: Plasma concentration, Geometric Mean
[6] = Normal Hepatic Function, read-out: Plasma concentration, Median

Q: With `N#CC1(c2ccc(NC(=O)c3cccnc3NCc3ccncc3)cc2)CCCC1` [Rivoceranib, N-[4-(1-cyanocyclopentyl)phenyl]-2-{[(pyridin-4-yl)methyl]amino} pyridine-3-carboxamide] as the molecule, how does the half-life (Moderate Hepatic Impairment, read-out: t1/2, Geometric Mean (converted)) read?
A: 18.4 h

Q: And the half-life (Moderate Hepatic Impairment, read-out: t1/2, Median (converted))?
A: 18.2 h

Q: And the Tmax (Moderate Hepatic Impairment, read-out: tmax, Arithmetic Mean)?
A: 2 h

Q: And the Tmax (Moderate Hepatic Impairment, read-out: tmax, Geometric Mean)?
A: 1.8 h

Q: And the Tmax (Moderate Hepatic Impairment, read-out: tmax, Median)?
A: 2 h

Q: What about the concentration at 0.5 h [1] of the same molecule?
A: 115 ng/mL

Q: What about the concentration at 0.5 h [2] of the same molecule?
A: 57.1 ng/mL

Q: And the concentration at 0.5 h [3]?
A: 92.2 ng/mL

Q: And the concentration at 1 h [1]?
A: 195 ng/mL

Q: What about the concentration at 1 h [2] of the same molecule?
A: 140 ng/mL

Q: And the concentration at 1 h [3]?
A: 154 ng/mL

Q: What about the concentration at 2 h [1] of the same molecule?
A: 190 ng/mL

Q: What about the concentration at 2 h [2] of the same molecule?
A: 178 ng/mL

Q: What about the concentration at 2 h [3] of the same molecule?
A: 170 ng/mL

Q: And the concentration at 3 h [1]?
A: 166 ng/mL

Q: And the concentration at 3 h [2]?
A: 154 ng/mL

Q: What about the concentration at 3 h [3] of the same molecule?
A: 162 ng/mL

Q: What about the concentration at 4 h [1] of the same molecule?
A: 134 ng/mL

Q: And the concentration at 4 h [2]?
A: 121 ng/mL

Q: And the concentration at 4 h [3]?
A: 132 ng/mL

Q: What about the concentration at 6 h [1] of the same molecule?
A: 106 ng/mL

Q: What about the concentration at 6 h [2] of the same molecule?
A: 96.8 ng/mL

Q: And the concentration at 6 h [3]?
A: 93.8 ng/mL

Q: And the concentration at 8 h [1]?
A: 85.5 ng/mL

Q: And the concentration at 8 h [2]?
A: 80.3 ng/mL

Q: What about the concentration at 8 h [3] of the same molecule?
A: 85 ng/mL

Q: And the concentration at 12 h [1]?
A: 62.3 ng/mL

Q: And the concentration at 12 h [2]?
A: 58.2 ng/mL

Q: And the concentration at 12 h [3]?
A: 54.2 ng/mL

Q: What about the concentration at 16 h [1] of the same molecule?
A: 52.6 ng/mL

Q: What about the concentration at 16 h [2] of the same molecule?
A: 45.3 ng/mL

Q: What about the concentration at 16 h [3] of the same molecule?
A: 43.4 ng/mL

Q: And the concentration at 24 h [1]?
A: 44.3 ng/mL

Q: What about the concentration at 24 h [2] of the same molecule?
A: 38.7 ng/mL

Q: And the concentration at 24 h [3]?
A: 36.5 ng/mL

Q: And the concentration at 36 h [1]?
A: 24 ng/mL

Q: What about the concentration at 36 h [2] of the same molecule?
A: 20.9 ng/mL

Q: What about the concentration at 36 h [3] of the same molecule?
A: 24.9 ng/mL

Q: What about the concentration at 48 h [1] of the same molecule?
A: 17.4 ng/mL

Q: And the concentration at 48 h [2]?
A: 18.1 ng/mL

Q: What about the concentration at 48 h [3] of the same molecule?
A: 15.5 ng/mL

Q: What about the AUC(0-t) (Normal Hepatic Function, read-out: AUC0-t, Arithmetic Mean) of the same molecule?
A: 2690 ng·h/mL

Q: What about the AUC(0-t) (Normal Hepatic Function, read-out: AUC0-t, Geometric Mean) of the same molecule?
A: 2560 ng·h/mL

Q: What about the AUC(0-t) (Normal Hepatic Function, read-out: AUC0-t, Median) of the same molecule?
A: 2780 ng·h/mL

Q: And the AUC(0-inf) (Normal Hepatic Function, read-out: AUC0-∞, Arithmetic Mean)?
A: 3180 ng·h/mL

Q: What about the AUC(0-inf) (Normal Hepatic Function, read-out: AUC0-∞, Geometric Mean) of the same molecule?
A: 3050 ng·h/mL

Q: And the AUC(0-inf) (Normal Hepatic Function, read-out: AUC0-∞, Median)?
A: 2880 ng·h/mL

Q: What about the Cmax (Normal Hepatic Function, read-out: Cmax, Arithmetic Mean) of the same molecule?
A: 271 ng/mL

Q: And the Cmax (Normal Hepatic Function, read-out: Cmax, Geometric Mean)?
A: 250 ng/mL

Q: What about the Cmax (Normal Hepatic Function, read-out: Cmax, Median) of the same molecule?
A: 270 ng/mL

Q: And the Vd/F (Normal Hepatic Function, read-out: VZ/F, Arithmetic Mean)?
A: 1340 L

Q: What about the Vd/F (Normal Hepatic Function, read-out: VZ/F, Geometric Mean) of the same molecule?
A: 1310 L

Q: What about the Vd/F (Normal Hepatic Function, read-out: VZ/F, Median) of the same molecule?
A: 1190 L

Q: And the half-life (Normal Hepatic Function, read-out: t1/2, Arithmetic Mean (converted))?
A: 17.9 ± 8.6 h

Q: And the half-life (Normal Hepatic Function, read-out: t1/2, Geometric Mean (converted))?
A: 16.3 h

Q: And the half-life (Normal Hepatic Function, read-out: t1/2, Median (converted))?
A: 16.9 h

Q: What about the Tmax (Normal Hepatic Function, read-out: tmax, Arithmetic Mean) of the same molecule?
A: 2.5 h

Q: What about the Tmax (Normal Hepatic Function, read-out: tmax, Geometric Mean) of the same molecule?
A: 2.2 h

Q: What about the Tmax (Normal Hepatic Function, read-out: tmax, Median) of the same molecule?
A: 2 h

Q: What about the concentration at 0.5 h [4] of the same molecule?
A: 17.7 ng/mL

Q: And the concentration at 0.5 h [5]?
A: 15.2 ng/mL

Q: And the concentration at 0.5 h [6]?
A: 6.8 ng/mL

Q: And the concentration at 1 h [4]?
A: 136 ng/mL

Q: And the concentration at 1 h [5]?
A: 92.9 ng/mL

Q: And the concentration at 1 h [6]?
A: 74.4 ng/mL

Q: And the concentration at 2 h [4]?
A: 226 ng/mL

Q: And the concentration at 2 h [5]?
A: 204 ng/mL

Q: And the concentration at 2 h [6]?
A: 236 ng/mL

Q: And the concentration at 3 h [4]?
A: 216 ng/mL

Q: What about the concentration at 3 h [5] of the same molecule?
A: 192 ng/mL

Q: And the concentration at 3 h [6]?
A: 199 ng/mL

Q: And the concentration at 4 h [4]?
A: 164 ng/mL

Q: What about the concentration at 4 h [5] of the same molecule?
A: 149 ng/mL

Q: What about the concentration at 4 h [6] of the same molecule?
A: 147 ng/mL

Q: What about the concentration at 6 h [4] of the same molecule?
A: 131 ng/mL

Q: And the concentration at 6 h [5]?
A: 117 ng/mL

Q: And the concentration at 6 h [6]?
A: 106 ng/mL

Q: What about the concentration at 8 h [4] of the same molecule?
A: 99.4 ng/mL

Q: And the concentration at 8 h [5]?
A: 89.5 ng/mL

Q: What about the concentration at 8 h [6] of the same molecule?
A: 81 ng/mL

Q: What about the concentration at 12 h [4] of the same molecule?
A: 67.8 ng/mL

Q: And the concentration at 12 h [5]?
A: 63.2 ng/mL

Q: And the concentration at 12 h [6]?
A: 61.9 ng/mL

Q: What about the concentration at 16 h [4] of the same molecule?
A: 48.8 ng/mL

Q: What about the concentration at 16 h [5] of the same molecule?
A: 45.7 ng/mL

Q: What about the concentration at 16 h [6] of the same molecule?
A: 49.7 ng/mL

Q: And the concentration at 24 h [4]?
A: 43.2 ng/mL

Q: And the concentration at 24 h [5]?
A: 40.4 ng/mL

Q: What about the concentration at 24 h [6] of the same molecule?
A: 43 ng/mL

Q: And the concentration at 36 h [4]?
A: 23.9 ng/mL

Q: What about the concentration at 36 h [5] of the same molecule?
A: 21.3 ng/mL

Q: What about the concentration at 36 h [6] of the same molecule?
A: 24.2 ng/mL

Q: And the concentration at 48 h [4]?
A: 14.9 ng/mL

Q: What about the concentration at 48 h [5] of the same molecule?
A: 14.8 ng/mL

Q: And the concentration at 48 h [6]?
A: 15.9 ng/mL

Q: And the “exposure in mild or moderate hepatic impairment compared to normal hepatic function” value (same amount of rivoceranib)?
A: do not have a statistically significant difference in exposure
